From patent US8377963B2, “Insulin-regulated aminopeptidase (IRAP) inhibitors and uses thereof” (Howard Florey Institute, priority 2007, dated 2013)
pIC50, pKi: −log10 of the molar value.

Columns and labels:
IRAP = biological target: T1, IRAP (Homo sapiens, UniProt Q9UIQ6); experiment: IRAP enzymatic assay (hydrolysis of Leu-MCA); type: biochemical; conditions: substrate Leu-MCA, solubilized membranes of HEK 293T cells transfected with IRAP
T1 construct: expressed in transfected cells; host or cells: HEK 293T
Protocol: An in vitro enzymatic assay was used to initially assess IRAP inhibitory activity.
After solubilization, the membranes were pelleted by centrifugation at 23,100 g for 15 min at 4° C., and the supernatant was reserved as the source of IRAP activity. The enzymatic activities of IRAP were determined by the hydrolysis of the synthetic substrate Leu-MCA (Sigma-Aldrich, Missouri, USA) monitored by the release of a fluorogenic product, MCA, at excitation and emission wavelengths of 380 and 440 nm, respectively. Assays were performed in 96-well plates; each well contains between […] solubilized membrane protein, a range of concentration of substrate in a final volume of 100 μL 50 mM Tris-HCl buffer (pH 7.4). Non-specific hydrolysis of the substrate was corrected by subtracting the emission from incubations with membranes transfected with empty vector. Reactions proceeded at 37° C. for 30 min within a thermostatted FLEX station fluorescence microplate reader (Molecular Devices, Sunnyvale, Calif.). […] Km values of IRAP for Leu-MCA were determined from the kinetic studies. […] All data obtained were from at least three separate experiments performed in duplicate.

Aminopeptidase N = biological target: T2, Aminopeptidase N (Sus scrofa, UniProt P15145); experiment: Aminopeptidase N assay; type: biochemical; conditions: 10 μM; read-out: % inhibition of the catalytic activity of the enzyme
T2 construct: purchased Sigma Aldrich
T2 sequence (P15145 1-963): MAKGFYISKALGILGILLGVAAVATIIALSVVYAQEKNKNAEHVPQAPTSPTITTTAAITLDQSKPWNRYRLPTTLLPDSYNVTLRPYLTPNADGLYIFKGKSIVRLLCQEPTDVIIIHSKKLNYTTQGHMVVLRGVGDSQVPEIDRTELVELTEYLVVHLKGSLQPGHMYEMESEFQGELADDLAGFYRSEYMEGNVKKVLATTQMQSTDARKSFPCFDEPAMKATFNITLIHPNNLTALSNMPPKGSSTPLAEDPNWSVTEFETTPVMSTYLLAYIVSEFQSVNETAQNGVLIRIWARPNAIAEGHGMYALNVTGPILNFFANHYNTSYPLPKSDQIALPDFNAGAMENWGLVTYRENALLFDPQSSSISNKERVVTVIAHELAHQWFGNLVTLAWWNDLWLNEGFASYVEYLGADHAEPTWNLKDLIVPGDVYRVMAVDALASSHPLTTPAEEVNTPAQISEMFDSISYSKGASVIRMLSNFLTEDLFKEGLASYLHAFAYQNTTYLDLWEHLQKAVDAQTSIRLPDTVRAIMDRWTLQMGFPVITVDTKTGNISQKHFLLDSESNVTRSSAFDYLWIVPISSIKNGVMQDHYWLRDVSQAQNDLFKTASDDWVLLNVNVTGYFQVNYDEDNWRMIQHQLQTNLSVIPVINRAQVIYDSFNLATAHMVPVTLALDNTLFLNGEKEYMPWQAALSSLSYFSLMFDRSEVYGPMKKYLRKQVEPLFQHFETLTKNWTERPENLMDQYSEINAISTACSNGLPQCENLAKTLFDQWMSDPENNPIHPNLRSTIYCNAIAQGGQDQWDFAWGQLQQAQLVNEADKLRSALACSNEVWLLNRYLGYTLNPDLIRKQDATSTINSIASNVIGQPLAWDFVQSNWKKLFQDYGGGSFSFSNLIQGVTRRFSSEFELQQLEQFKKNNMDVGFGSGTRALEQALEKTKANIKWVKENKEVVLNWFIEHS
Protocol: Aminopeptidase N assay. 5 mU of aminopeptidase M (Sigma Aldrich) was incubated with 100 μM of substrate alanine-β-naphthylamide (Sigma Aldrich) in Tris buffered saline (50 mM Tris-HCl, 150 mM NaCl pH 7.5) at 25° C. IRAP inhibitors (1-10 μM) were added after 1 minute and fluorescence at 405 nm was followed.
Limited inhibition of control enzymes was observed.

rats [1] = experiment: Elevated plus maze (stress or anxiety); type: in vivo, rat; conditions: for Time spent in the open arm (% control): rats, n=8 per group
Protocol: (§1) All experiments were performed according to the National Health and Medical Research Council of Australia “Code of practise for the care and use of animals for scientific purposes”. Male Spraque Dawley rats, (250-270 g) are housed individually and given water and standard rat chow ad libitum. On the day of surgery, the rats were anaesthetized with 5% isofluorane, placed in a stereotaxic frame and maintained on 2% isofluorane for the duration of the cannula implantation procedure. The rats were stereotaxically implanted with chronic indwelling cannula (Plastics One) into the cerebral lateral ventricles using the following flat skull coordinates 0.8 mm posterior to Bregma, 1.55 mm lateral to midline and 3.5 mm ventral to the dura. The cannula was then secured to the skull with stainless steel screws and dental cement. Seven days following surgery, proper cannula placement was verified by a bolus injection of angiotensin II (1 nmol/μl).
The elevated plus maze was used to investigate the potential effect of IRAP inhibitors on stress or anxiety. The elevated plus maze consists of two open arms (70×10 cm) with a 5 cm high surrounding wall and two enclosed arms (70×10 cm) with a 27 cm high surrounding wall. The floor of the open and closed arms are white laminate, the open arm walls are clear perspex, and the closed arms walls dark grey perspex. The maze is elevated 85 cm above the ground in the centre of a room that is lit by overhead lights generating 1241 ux. […] The time spent in the closed arms compared to the open arms was a measure of the anxiety status of the animals.

rats [2] = experiment: Locomotor cell activity; type: in vivo, rat; conditions: 30 mins; for Distance travelled (% control): rats, n=8 per group
Protocol: as §1
Locomotor activity of rats treated with 1 nmol Compound 2 intracerebrocentricularly was monitored in special cages measuring 40×40×40 cm (Coulbourn Instruments, Philadelphia, USA) equipped with harmless infrared photobeams. Activity was measured when pairs of photobeams spaced 2.54 cm apart providing a 1.27 cm spatial resolution were crossed. Data was collected and analysed using TruScan Photo Beam Activity system (Coulbourn Instruments, Philadelphia, USA). Each rat was placed in the arena for 30 min.

[3] = system: Glucose-6-phosphate dehydrogenase/glucose hexokinase; experiment: Glucose-6-phosphate dehydrogenase and hexokinase activity, fluorimetric assay; conditions: 100 μM
Protocol: Glucose-6-phosphate dehydrogenase and hexokinase activity. Glucose-6-phosphate dehydrogenase and hexokinase activity in the absence and presence of the compounds was determined in a fluorimetric assay. Ten mM Tris MgCl2 buffer (total volume of 200 ml) containing glucose-6-phosphate dehydrogenase, 0.3M ATP, 30 mM NADP+ was added to 96 well microtitre plate together with 20 μl of compound, a reading at excitation 350 nm and emission 510 nm was taken followed by the addition of hexokinase and another reading.

[4] = 0.1 nmol intracerebroventricularly
[5] = 1 nmol intracerebroventricularly
[6] = 0.1 and 1 nmol intracerebroventricularly

T1 sequence (Q9UIQ6 whole entry): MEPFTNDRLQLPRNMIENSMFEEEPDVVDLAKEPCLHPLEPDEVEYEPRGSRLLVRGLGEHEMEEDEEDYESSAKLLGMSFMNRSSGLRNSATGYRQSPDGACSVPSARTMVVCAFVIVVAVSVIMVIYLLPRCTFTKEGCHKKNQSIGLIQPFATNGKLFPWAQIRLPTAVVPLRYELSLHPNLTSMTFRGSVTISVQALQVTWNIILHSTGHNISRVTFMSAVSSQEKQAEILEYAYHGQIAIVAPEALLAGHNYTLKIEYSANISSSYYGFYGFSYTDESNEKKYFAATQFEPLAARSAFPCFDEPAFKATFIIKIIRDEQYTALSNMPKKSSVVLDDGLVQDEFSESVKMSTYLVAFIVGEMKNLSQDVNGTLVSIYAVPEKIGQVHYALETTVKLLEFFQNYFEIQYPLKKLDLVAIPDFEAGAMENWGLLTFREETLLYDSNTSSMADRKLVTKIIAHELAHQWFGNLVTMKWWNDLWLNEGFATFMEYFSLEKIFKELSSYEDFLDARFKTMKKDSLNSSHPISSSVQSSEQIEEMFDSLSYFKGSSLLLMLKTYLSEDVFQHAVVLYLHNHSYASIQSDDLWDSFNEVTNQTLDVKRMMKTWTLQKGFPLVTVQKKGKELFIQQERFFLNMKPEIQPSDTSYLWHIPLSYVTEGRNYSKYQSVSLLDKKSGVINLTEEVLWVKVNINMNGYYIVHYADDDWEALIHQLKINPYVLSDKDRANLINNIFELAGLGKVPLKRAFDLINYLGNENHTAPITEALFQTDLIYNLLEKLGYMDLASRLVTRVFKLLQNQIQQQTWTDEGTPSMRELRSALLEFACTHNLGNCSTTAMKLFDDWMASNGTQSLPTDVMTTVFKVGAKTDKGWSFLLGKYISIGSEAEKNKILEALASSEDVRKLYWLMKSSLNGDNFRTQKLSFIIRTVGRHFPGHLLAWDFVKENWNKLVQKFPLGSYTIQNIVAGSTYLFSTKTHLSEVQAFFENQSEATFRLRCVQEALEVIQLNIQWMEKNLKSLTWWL

pIC50 (IRAP): 6.10
pKi (IRAP; calculated from IC50=Ki(1+[S]/Km), read-out: K1): 6.32
inhibition at 10 µM (Aminopeptidase N): 13%
Time spent in the open arm (% control) (rats [1]; [4]): 121.62 ± 28.26 % control
Time spent in the open arm (% control) (rats [1]; [5]): 127.88 ± 19.18 % control
stress compared to vehicle, by time spent in the open arm of the elevated plus maze (rats [1]; [6]): not significantly more or less stressed
Distance travelled (% control) (rats [2]; [4]): 85.12 ± 12.99 % control
Distance travelled (% control) (rats [2]; [5]): 90.16 ± 6.73 % control
% inhibition of the catalytic activity of the enzyme [3]: 0%
Compound: CCOC(=O)C1=C(NC(C)=O)Oc2cc(O)ccc2C1c1cccnc1 (stereo not shown) [Compound 2, Ethyl 2-(acetylamino)-7-hydroxy-4-pyridin-3-yl-4H-chromene-3-carboxylate]
locomotor activity compared to vehicle, by crossing of infrared beams and total distance travelled (rats [2]; [6]): did not exhibit increased or decreased locomotor activity
